Experiments:
[1] = target: T1, human adenosine-A2A receptors (Homo sapiens, UniProt P29274); experiment: In vitro affinity for human adenosine-A2A receptors, [3H]CGS 21680 radioligand binding; conditions: human recombinant receptors expressed in HEK-293 cells, read-out: Adenosine receptor affinity A2A pKi (converted)
T1 construct: expressed in transfected cells; host or cells: HEK-293 cells
Description: Affinity of the compounds for human adenosine-A2A receptors was determined using the receptor binding assay described by D. R. Luthin et al. (Mol. Pharmacol., 47, 307, 1995), using human recombinant receptors expressed in HEK-293 cells, and [^3H]CGS 21680 as radioligand.

[2] = target: T2, human adenosine-A1 receptors (Homo sapiens, UniProt P30542); experiment: In vitro affinity for human adenosine-A1 receptors, [3H]DPCPX radioligand binding; conditions: human recombinant receptors expressed in CHO cells, read-out: Adenosine receptor affinity A1 pKi (converted)
T2 construct: expressed in transfected cells; host or cells: CHO cells
T2 sequence (P30542 1-326): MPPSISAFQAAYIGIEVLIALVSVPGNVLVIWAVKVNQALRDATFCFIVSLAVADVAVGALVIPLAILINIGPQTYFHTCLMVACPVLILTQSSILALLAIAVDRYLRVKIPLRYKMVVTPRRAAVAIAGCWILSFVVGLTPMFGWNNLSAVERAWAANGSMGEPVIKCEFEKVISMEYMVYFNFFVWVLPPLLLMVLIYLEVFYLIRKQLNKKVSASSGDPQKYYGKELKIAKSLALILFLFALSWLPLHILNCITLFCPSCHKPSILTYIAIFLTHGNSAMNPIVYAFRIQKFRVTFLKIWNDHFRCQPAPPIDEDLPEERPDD
Description: Affinity of the compounds for human adenosine-A1 receptors was determined using the receptor binding assay described by A. Townsend-Nicholson and P. R. Schofield (Biol. Chem., 269, 2373, 1994), using human recombinant receptors expressed in CHO cells, and [^3H]DPCPX as radioligand.

[3] = target: T3, human adenosine-A3 receptor (Homo sapiens, UniProt P0DMS8); experiment: In vitro affinity for human adenosine-A3 receptors, [125I]-AB-MECA radioligand binding; conditions: human recombinant (HEK 293) cell membranes, read-out: Adenosine receptor affinity A3 pKi (converted)
T3 construct: expressed in transfected cells; membrane preparations
T3 sequence (P0DMS8 1-318): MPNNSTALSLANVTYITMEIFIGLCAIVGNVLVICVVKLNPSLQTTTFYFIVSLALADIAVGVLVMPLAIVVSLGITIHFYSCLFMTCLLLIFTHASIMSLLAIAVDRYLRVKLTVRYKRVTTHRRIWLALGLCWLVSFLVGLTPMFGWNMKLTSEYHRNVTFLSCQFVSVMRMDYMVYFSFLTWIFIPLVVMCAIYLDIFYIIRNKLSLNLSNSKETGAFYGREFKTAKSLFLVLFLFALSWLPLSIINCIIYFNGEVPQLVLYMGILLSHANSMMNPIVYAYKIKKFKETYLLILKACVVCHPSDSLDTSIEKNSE
Description: Affinity of the compounds for human adenosine-A3 receptors was determined using the receptor binding assay described by C. A. Salvatore et al.: “Molecular cloning and characterization of the human A3 adenosine receptor”, Proc. Natl. Acad. Sci. USA, 90, 10365-10369, 1993. Briefly, membrane preparations were obtained from human recombinant (HEK 293) cells in which the human adenosine-A3 receptor was stably expressed. Membranes were incubated at 22° C. for 90 minutes with [^125I]-AB-MECA in the absence or presence of test compounds in a concentration range from 10 μM down to 0.1 nM, diluted in a suitable buffer. Separation of bound radioactivity from free was done by filtration through Packard GF/B glass fiber filters with several washings with ice-cold buffer using a Packard cell harvester. Bound radioactivity was measured with a scintillation counter (Topcount, Packard) using a liquid scintillation cocktail (Microscint 0, Packard). Measured radioactivity was plotted against the concentration of the displacing test compound and displacement curves were calculated by four-parameter logistic regression, resulting in IC50 values, i.e. that concentration of displacing compound by which 50% of the radioligand is displaced. […]

T1 sequence (P29274 whole entry): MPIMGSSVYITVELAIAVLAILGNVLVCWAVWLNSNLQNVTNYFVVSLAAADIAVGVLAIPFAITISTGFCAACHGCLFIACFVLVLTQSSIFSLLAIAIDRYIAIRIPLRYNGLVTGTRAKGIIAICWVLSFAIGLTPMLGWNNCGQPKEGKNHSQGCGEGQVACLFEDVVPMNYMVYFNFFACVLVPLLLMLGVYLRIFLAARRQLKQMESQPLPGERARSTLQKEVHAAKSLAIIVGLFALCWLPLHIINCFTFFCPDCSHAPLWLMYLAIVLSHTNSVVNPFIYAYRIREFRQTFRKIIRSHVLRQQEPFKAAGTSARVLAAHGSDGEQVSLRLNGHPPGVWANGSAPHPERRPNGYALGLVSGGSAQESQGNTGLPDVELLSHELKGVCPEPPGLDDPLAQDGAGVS

Row | SMILES | Ki [1] | Ki [2] | Ki [3] | melting point
1 | Cn1cnc2c(N)cc(N[C@H]3CC[C@@H](O)CC3)nc21 [Compound 2, 2-(cis-4-hydroxycyclohexylamino)-6-amino-9-methyl-1-deazapurine] | 7940 nM | – | – | –
2 | Cn1cnc2c(N)cc(NN=Cc3ccccc3)nc21 [Compound 4, 2-benzylhydrazone-6-amino-9-methyl-1-deazapurine] | 1260 nM | 3.98 µM | 2510 nM | 231.7 to 232.8 °C
3 | Cn1cnc2c(N)cc(NN=CCc3ccccc3)nc21 [Compound 3, 2-(2-phenylethyl-hydrazone)-6-amino-9-methyl-1-deazapurine] | 3160 nM | 2.51 µM | – | 182.1 °C
4 | Cn1cnc2c(N)cc(N3OC4C=CC3CC4)nc21 (stereo not drawn) [Compound 1, 2-(2-oxa-3-azabicyclo[2.2.2]oct-5-en-3-yl)-6-amino-9-methyl-1-deazapurine] | 15800 nM | – | – | 169.9 °C

More lines, now with the values ahead:

Row | Ki [1] | Ki [2] | Ki [3] | melting point | SMILES
5 | 2000 nM | 3.16 µM | – | – | Cn1cnc2c(N)cc(NN=CC3CCCCC3)nc21 [Compound 8, 2-(cyclohexylmethyl-hydrazone)-6-amino-9-methyl-1-deaza-purine]
6 | 1000 nM | – | – | – | COc1ccc(C=NNc2cc(N)c3ncn(C)c3n2)cc1 [Compound 5, 2-(4-methoxy-2-benzylhydrazon)-6-amino-9-methyl-1-deazapurine]
7 | 2000 nM | 6.31 µM | – | – | COc1ccc(C=NNc2cc(N)c3ncn(C)c3n2)c(OC)c1 [Compound 6, 2-(2,4-dimethoxy-2-benzylhydrazon)-6-amino-9-methyl-1-deazapurine]
